Experimental findings from patent publication US20250326718A1, “4-PHENYL-2-PYRROLIDINONES AND METHODS OF USING THEREOF” (North Carolina State University, priority 2022, published 2025) are described below.

In brackets after ≈: the same amount, converted by molar mass. Where two headings read alike, the source gives them in different places.

Common to all, as to type: cell-based
One test concerns MSSA (ATCC 25923). In words: Broth microdilution MIC, MSSA ATCC 25923. Conditions: Staphylococcus aureus. (Broth dilution looks for growth in wells or tubes with falling amounts of substance.)
The subject of a further test is S. aureus 29213. In words: Broth microdilution MIC, S. aureus 29213. Conditions: Staphylococcus aureus.
A further test has as its system MRSA (ATCC 33591). As to the kind of experiment: Broth microdilution MIC, MRSA ATCC 33591. Conditions: Staphylococcus aureus; Tables 2-4; standardized conditions. As for the experimental part: General information—Biological Assays. Methicillin-resistant and methicillin sensitive Staphylococcus aureus (MRSA and MSSA respectively) strains were obtained from the Laboratory of Professor Christian Melander (NCSU) (ATCC BAA 44 and 33591) and Dr. Jessica Gilbertie (ATCC 25923). Bacteria were kept in frozen stocks on glycerol at −80° C. until use. Bacteria was streaked onto tryptic-soy agar for colony isolation. Mueller-Hinton broth (MHB, 211443-BD), tryptic soy broth (TSB, Remel: R455052) and D-glucose (CAS: 492-62-6) were purchased from Fisher Scientific. Tryptic soy agar (TSA, cat. #22091) and Linezolid (cat. #P70014) were purchased from Sigma-Aldrich. Bacteria for biofilm inhibition were cultured overnight in TSB-G (tryptic soy broth with 0.5% glucose supplement) in 96 well plates. All assays were run in duplicate and repeated at least two separate times for MIC assays and at least three separate times for biofilm inhibition. All compounds were dissolved in molecular biology grade DMSO as 10 mM stock solutions. Optical densities were measured using a Thermo Scientific Genesys 20 spectrophotometer. Data for biofilm inhibition were collected using a BioTek ELx808 Microplate Reader. All graphs were generated and analyzed using GraphPad Prism 7.
Broth microdilution method for determination of minimum inhibitory concentrations. As prescribed by the Clinical and Laboratory Standards Institute (CLSI) M07-A8, Vol. 29 (2) MSSA (ATCC 25923) and MRSA (ATCC BAA 44 and 33591) was grown in MHB for 6-8 h; this culture was used to inoculate fresh MHB (5×10^5 CFU/mL). The resulting bacterial suspension was aliquoted (1 mL) into 1.5 mL Eppendorf tubes and compound was added from a 10 mM DMSO stock to achieve the desired initial starting concentration (typically 128 μg/mL). Linezolid (from a 10 mM DMSO stock) was used as a positive control. Inoculated media not treated with compound served as the negative control. The MIC was determined by microbroth dilution following the CLSI guidelines. The MIC was defined as the lowest concentration of antibiotic with no visible growth. The plate was sealed and incubated under stationary conditions at 37° C.
The antimicrobial activity of Compounds 1-15 was assessed initially against MSSA (ATCC 25923) and MRSA (ATCC 33591) strains. It was observed that almost all these compounds precipitated in aqueous solution at concentrations equal or higher than 8-16 μg/mL. In order to obtain preliminary results on the antimicrobial activity for these compounds, the standard conditions of the antimicrobial assays used where modified to favor the water solubility of these compounds.

Where [1] appears, read: Tables 2-4, standardized conditions, read-out: MIC (S. aureus 25923).
Where [2] appears, read: Table 2, standardized conditions, read-out: MIC (S. aureus 25913).
Setting [3] is: Tables 3-4, standardized conditions, read-out: MIC (S. aureus 29213).

`CCC1C(c2ccc(C(F)(F)F)cc2)=C(O)C(=O)N1CCCNCCCCNCCCN1C(=O)C(O)=C(c2ccc(C(F)(F)F)cc2)C1CC` (centres unmarked) [Compound 33, 1,1′-((Butane-1,4-diylbis(azanediyl))bis(propane-3,1-diyl))bis(5-ethyl-3-hydroxy-4-(4-(trifluoromethyl)phenyl)-1,5-dihydro-2H-pyrrol-2-one)]: the MIC in the test on MSSA (ATCC 25923) (setting [1]) and with S. aureus 29213 (setting [2]) was 4 µg/mL (≈ 5.63 µM) in each case.

Turning to `O=C1C(O)=C(c2ccc(C(F)(F)F)cc2)C([C@H](O)c2ccccc2)N1c1ccc(Cl)cc1` (stereo partly drawn) [Compound 54, 1-(4-Chlorophenyl)-3-hydroxy-5-((R)-hydroxy(phenyl)methyl)-4-(4-(trifluoromethyl)phenyl)-1,5-dihydro-2H-pyrrol-2-one], the MIC (usually the lowest concentration that inhibits growth of the organism) is 4 to 8 µg/mL (≈ 8.7 to 17.4 µM) against MRSA (ATCC 33591), 4 µg/mL (≈ 8.7 µM) with MSSA (ATCC 25923) (setting [1]) and 4 µg/mL (≈ 8.7 µM) in the test on S. aureus 29213 (setting [3]).

For `COc1ccc(N2C(=O)C(O)=C(c3ccc(C(F)(F)F)cc3)C2[C@H](O)c2ccccc2)cc1` (stereo partly drawn) [Compound 52, 3-Hydroxy-5-((R)-hydroxy(phenyl)methyl)-1-(4-methoxyphenyl)-4-(4-(trifluoromethyl)phenyl)-1,5-dihydro-2H-pyrrol-2-one], the MIC in the test on MRSA (ATCC 33591), with MSSA (ATCC 25923) (setting [1]) and in the test on S. aureus 29213 (setting [3]) was > 128 µg/mL in each case.

As for `CCC1C(c2ccc(C(F)(F)F)cc2)=C(O)C(=O)N1CCCCNCCCN1C(=O)C(O)=C(c2ccc(C(F)(F)F)cc2)C1CC` (centres unmarked) [Compound 32, 5-Ethyl-1-(3-((4-(2-ethyl-4-hydroxy-5-oxo-3-(4-(trifluoromethyl)phenyl)-2,5-dihydro-1H-pyrrol-1-yl)butyl)amino)propyl)-3-hydroxy-4-(4-(trifluoromethyl)phenyl)-1,5-dihydro-2H-pyrrol-2-one], the MIC against MRSA (ATCC 33591) came to 64 µg/mL (≈ 97.9 µM); in the test on MSSA (ATCC 25923) (setting [1]) it was 8 µg/mL (≈ 12.2 µM); in the test on S. aureus 29213 (setting [2]), 64 µg/mL (≈ 97.9 µM).

On to `CCC1C(c2ccc(C(F)(F)F)cc2)=C(O)C(=O)N1C1CCC(N)CC1` (centres unmarked) [Compound 19, 1-((1r,4r)-4-Aminocyclohexyl)-5-ethyl-3-hydroxy-4-(4-(trifluoromethyl)phenyl)-1,5-dihydro-2H-pyrrol-2-one], for which the minimal inhibitory concentration (MIC) in the test with MRSA (ATCC 33591) amounted to 128 µg/mL (≈ 347 µM); with MSSA (ATCC 25923) (setting [1]), 64 µg/mL (≈ 174 µM); with S. aureus 29213 (setting [2]) it was 128 µg/mL (≈ 347 µM).

Consider `CCC1C(c2ccc(C(F)(F)F)cc2)=C(O)C(=O)N1CCOCCN1C(=O)C(O)=C(c2ccc(C(F)(F)F)cc2)C1CC` (centres unmarked) [Compound 30, 1,1′-(Oxybis(ethane-2,1-diyl))bis(5-ethyl-3-hydroxy-4-(4-(trifluoromethyl)phenyl)-1,5-dihydro-2H-pyrrol-2-one)], for which the MIC with MRSA (ATCC 33591), with MSSA (ATCC 25923) (setting [1]) and with S. aureus 29213 (setting [2]) was > 128 µg/mL throughout.

Consider `O=C1C(O)=C(c2ccc(C(F)(F)F)cc2)C(CCl)N1c1ccc(Br)cc1` (centres unmarked) [Compound 44, 1-(4-Bromophenyl)-5-(chloromethyl)-3-hydroxy-4-(4-(trifluoromethyl)phenyl)-1,5-dihydro-2H-pyrrol-2-one], for which the minimal inhibitory concentration (MIC) in the test on MRSA (ATCC 33591) worked out at 64 µg/mL (≈ 143 µM); with MSSA (ATCC 25923) (setting [1]), 64 µg/mL (≈ 143 µM); in the test on S. aureus 29213 (setting [3]), 128 µg/mL (≈ 287 µM).

In the case of `O=C1C(O)=C(c2ccc(C(F)(F)F)cc2)C([C@H](O)c2ccccc2)N1c1ccc(I)cc1` (stereo partly drawn) [Compound 55, 3-Hydroxy-5-((R)-hydroxy(phenyl)methyl)-1-(4-iodophenyl)-4-(4-(trifluoromethyl)phenyl)-1,5-dihydro-2H-pyrrol-2-one], the MIC with MRSA (ATCC 33591) was 4 µg/mL (≈ 7.26 µM); with MSSA (ATCC 25923) (setting [1]), 2 to 4 µg/mL (≈ 3.63 to 7.26 µM); with S. aureus 29213 (setting [3]), 2 µg/mL (≈ 3.63 µM).

Turning to `CCC1C(c2ccc(C(F)(F)F)cc2)=C(O)C(=O)N1CCOCCOCCOCCN` (centres unmarked) [Compound 22, 1-(2-(2-(2-(2-Aminoethoxy)ethoxy)ethoxy)ethyl)-5-ethyl-3-hydroxy-4-(4-(trifluoromethyl)phenyl)-1,5-dihydro-2H-pyrrol-2-one], the MIC against MRSA (ATCC 33591), in the test on MSSA (ATCC 25923) (setting [1]) and in the test with S. aureus 29213 (setting [2]) was > 128 µg/mL in each case.

Consider `CCC1C(c2ccc(C(F)(F)F)cc2)=C(O)C(=O)N1CCN(CCN)CCN` (centres unmarked) [Compound 38, 1-(2-(bis(2-aminoethyl)amino)ethyl)-5-ethyl-3-hydroxy-4-(4-(trifluoromethyl)phenyl)-1,5-dihydro-2H-pyrrol-2-one], for which the MIC against MRSA (ATCC 33591), with MSSA (ATCC 25923) (setting [1]) and in the test on S. aureus 29213 (setting [3]) was 64 µg/mL (≈ 160 µM) throughout.

On to `O=C1C(O)=C(c2ccc(C(F)(F)F)cc2)C([C@H](O)c2ccccc2)N1c1ccc(Br)cc1` (stereo partly drawn) [Compound 47, 1-(4-Bromophenyl)-3-hydroxy-5-((R)-hydroxy(phenyl)methyl)-4-(4-(trifluoromethyl)phenyl)-1,5-dihydro-2H-pyrrol-2-one], for which the MIC against MRSA (ATCC 33591) and in the test with S. aureus 29213 (setting [3]) was 8 µg/mL (≈ 15.9 µM) each time.

`CCC1C(c2ccc(C(F)(F)F)cc2)=C(O)C(=O)N1CCN1C(=O)C(O)=C(c2ccc(C(F)(F)F)cc2)C1CC` (centres unmarked) [Compound 25, 1,1′-(Ethane-1,2-diyl)bis(5-ethyl-3-hydroxy-4-(4-(trifluoromethyl)phenyl)-1,5-dihydro-2H-pyrrol-2-one)]: the MIC against MRSA (ATCC 33591), in the test on MSSA (ATCC 25923) (setting [1]) and with S. aureus 29213 (setting [2]) was > 128 µg/mL each time.

Consider `O=C1C(O)=C(c2ccc(C(F)(F)F)cc2)C(C2CC2)N1c1ccc(Br)cc1` (centres unmarked) [Compound 43, 1-(4-Bromophenyl)-5-cyclopropyl-3-hydroxy-4-(4-(trifluoromethyl)phenyl)-1,5-dihydro-2H-pyrrol-2-one], for which the MIC was 64 µg/mL (≈ 146 µM) in the test on MRSA (ATCC 33591), > 128 µg/mL in the test with MSSA (ATCC 25923) (setting [1]) and > 128 µg/mL with S. aureus 29213 (setting [3]).

Consider `O=C1C(O)=C(c2ccc(C(F)(F)F)cc2)C([C@H](O)c2ccccc2)N1c1ccc(C(F)(F)F)cc1` (stereo partly drawn) [Compound 56, 3-Hydroxy-5-((R)-hydroxy(phenyl)methyl)-1,4-bis(4-(trifluoromethyl)phenyl)-1,5-dihydro-2H-pyrrol-2-one], for which the MIC in the test on MRSA (ATCC 33591), in the test with MSSA (ATCC 25923) (setting [1]) and with S. aureus 29213 (setting [3]) was 2 µg/mL (≈ 4.05 µM) throughout.

Take `O=C1C(O)=C(c2ccc(C(F)(F)F)cc2)C([C@H](O)c2ccccc2)N1c1ccccc1` (stereo partly drawn) [Compound 51, 3-Hydroxy-5-((R)-hydroxy(phenyl)methyl)-1-phenyl-4-(4-(trifluoromethyl)phenyl)-1,5-dihydro-2H-pyrrol-2-one]: the MIC in the test on MRSA (ATCC 33591) was 32 µg/mL (≈ 75.2 µM); with MSSA (ATCC 25923) (setting [1]), 64 µg/mL (≈ 150 µM); in the test on S. aureus 29213 (setting [3]) it was 32 µg/mL (≈ 75.2 µM).

`CCC1C(c2ccc(C(F)(F)F)cc2)=C(O)C(=O)N1c1ccc(N)cc1` (centres unmarked) [Compound 20, 1-(4-Aminophenyl)-5-ethyl-3-hydroxy-4-(4-(trifluoromethyl)phenyl)-1,5-dihydro-2H-pyrrol-2-one]: the MIC in the test on MRSA (ATCC 33591) is 64 µg/mL (≈ 177 µM); in the test with MSSA (ATCC 25923) (setting [1]) it was > 128 µg/mL; in the test with S. aureus 29213 (setting [2]), > 128 µg/mL.

Regarding `CCC1C(c2ccc(C(F)(F)F)cc2)=C(O)C(=O)N1CCSCCN1C(=O)C(O)=C(c2ccc(C(F)(F)F)cc2)C1CC` (centres unmarked) [Compound 37, 1,1′-(thiobis(ethane-2,1-diyl))bis(5-ethyl-3-hydroxy-4-(4-(trifluoromethyl)phenyl)-1,5-dihydro-2H-pyrrol-2-one)], the MIC against MRSA (ATCC 33591), in the test with MSSA (ATCC 25923) (setting [1]) and in the test with S. aureus 29213 (setting [3]) was > 256 µg/mL throughout.

As for `CCCCCCN1C(=O)C(O)=C(c2ccc(C(F)(F)F)cc2)C1[C@H](O)c1ccccc1` (stereo partly drawn) [Compound 50, 1-Hexyl-3-hydroxy-5-((R)-hydroxy(phenyl)methyl)-4-(4-(trifluoromethyl)phenyl)-1,5-dihydro-2H-pyrrol-2-one], the MIC against MRSA (ATCC 33591), with MSSA (ATCC 25923) (setting [1]) and in the test with S. aureus 29213 (setting [3]) was > 128 µg/mL in each case.

Regarding `CCC1C(c2ccc(C(F)(F)F)cc2)=C(O)C(=O)N1CCN` (centres unmarked) [Compound 16, 1-(2-Aminoethyl)-5-ethyl-3-hydroxy-4-(4-(trifluoromethyl)phenyl)-1,5-dihydro-2H-pyrrol-2-one], the MIC with MRSA (ATCC 33591) was > 128 µg/mL; with MSSA (ATCC 25923) (setting [1]), 128 µg/mL (≈ 407 µM); with S. aureus 29213 (setting [2]), 128 µg/mL (≈ 407 µM).

For the compound `CCC1C(c2ccc(C(F)(F)F)cc2)=C(O)C(=O)N1CCCCN1C(=O)C(O)=C(c2ccc(C(F)(F)F)cc2)C1CC` (centres unmarked) [Compound 26, 1,1′-(Butane-1,4-diyl)bis(5-ethyl-3-hydroxy-4-(4-(trifluoromethyl)phenyl)-1,5-dihydro-2H-pyrrol-2-one)], the MIC in the test with MRSA (ATCC 33591), in the test on MSSA (ATCC 25923) (setting [1]) and in the test with S. aureus 29213 (setting [2]) was > 128 µg/mL in each case.

For the compound `O=C(O)c1cn(C2CC2)c2cc(N3CCNCC3)c(F)cc2c1=O` [Ciprofloxacin, ciprofloxacin, reference compound], in the test with MSSA (ATCC 25923) (antibiotic alone, read-out: MIC value against MSSA ATCC 25923), the MIC was determined as 0.5 µg/mL (≈ 1.51 µM).
